US20110275599A1, “USE OF COLD-STABILIZED METHYLATED VEGETABLE OILS AS AN AGRICULTURAL CHEMICAL COFORMULANT” (priority 2010, published 2011)

Assay: High throughput solubility screen in Permaflo methylated soybean oil
Assay type: physicochemical
Procedure: The solubility of several agricultural active ingredients in Permaflo methylated soybean oil was determined using a high throughput solubility screen.
Liquid handler was calibrated for each liquid and vials were tared. Active ingredients were melted or dissolved and then transferred into tared vials. Solvent was removed or active was allowed to crystallize before weighing. Permaflo methylated soybean oil was added in desired quantities; vials were weighed, and capped. Mixtures were agitated (220 rpm) for 48 hours at 0° C. […] Samples were held at 0° C. for 24 hours before imaging. Samples were transferred to shaker plate on bench and were agitated for 48 hours, before seeding, holding for 24 hours and imaging. Samples were then transferred to 40° C. shaker plate, agitated for 48 hours, seeded, held and then imaged again. All samples were imaged using normal light.

Q: Which “solubility in Permaflo methylated soybean oil” value (shortened to “solubility”) (0° C.) does the source give for `CCOP(=S)(OCC)Oc1nc(Cl)c(Cl)cc1Cl` [Chlorpyrifos] here?
A: The value was 35%.

Q: And the “solubility” value (24° C.)?
A: Its value is 55%.

Q: What about the “solubility” value (40° C.) of the same compound?
A: Its value is >60%.

Q: Which “solubility” value (0° C.) does the source give for `Nc1c(Cl)c(F)nc(OCC(=O)O)c1Cl` [Fluroxypyr] here?
A: The value was 25%.

Q: And the “solubility” value (24° C.)?
A: Its value is 35%.

Q: What about the “solubility” value (40° C.) of the same compound?
A: The value was 55%.
